Experimental data from patent US7897591B2, “Method of treating fatty liver disease” (priority 2005, dated 2011).

Tests used:
[1] = test system: C57BL/6 mice; assay: Serum liver function tests (AP, ALT, total and direct bilirubin) in HCD mouse model; assay type: in vivo
Description: Experiments were performed on 5-6 week-old C57BL/6 mice (Jackson Laboratories, Bar Harbor, Me.). The animals, in groups of five, were housed in a barrier room and were acclimated to their environment for at least 72 hours prior to the initiation of each experiment. Animal protocols complied with the NIH Animal Research Advisory Committee guidelines and were approved by the Children's Hospital Boston Animal Care and Use Committee. Control animals (n=5) received normal chow and water ad libitum. All animals in the experimental groups were fed a fat-free, high carbohydrate liquid diet (HCD) ad libitum placed in one bottle per cage as previously described (3, 62). No additional sources of nutrition or hydration were provided. The HCD liquid solution contained 20% dextrose, a commercial mixture of 2% essential and nonessential amino acids (TrophAmine, B. Braun Medical, Irvine, Calif.), 2 ml trace elements (Trace Elements Injection 4, USP—Pediatric, American Regent Shirley, N.Y.), and 5 ml multivitamins (M.V.I. Pediatric™, Mayne Pharma, Paramus, N.J.). Each liter of HCD contained 30 meq sodium, 20 meq potassium chloride, 15 meq calcium, 10 meq magnesium, and 10 mM phosphate. The bottles were replaced daily with fresh HCD solution. HCD animals (n=5) received HCD only and no additional treatment for 19 days. The HCD+MAR animals (n=15) additionally received 100 mg/kg of Marimastat™ in 0.45% methylcellulose (Sigma-Aldrich Corporation, St. Louis, Mo.) vehicle twice daily via orogastric gavage. The animals were individually weighed every third day and at sacrifice. Mice were anesthetized with 300 μl of 2.5% Avertin (Tribromoethanol, Sigma-Aldrich Corporation, St. Louis, Mo.) by intraperitoneal injection. Approximately 400 μl of blood was collected from each mouse via retro-orbital puncture. The specimens were then placed into serum separator tubes (Becton Dickinson, Franklin Lakes, N.J.), and centrifuged at 4° C. at 8000 rpm for 10 minutes to separate serum. Serum was frozen at −80° C. and delivered to the Clinical Laboratory at Children's Hospital Boston for measurement of aspartate aminotransferase (AST), alanine aminotransferase (ALT), alkaline phosphatase (AP), and total (TB) and direct bilirubin (DB) levels. Furthermore, a fatty acid profile was performed on these samples and TNF-α soluble receptor II levels were determined as described below.

[2] = test system: PPAR-α; assay: Immunoprecipitation and SDS-PAGE of PPAR-α phosphorylation; assay type: in vivo, mouse; settings: HCD+MAR group vs control and HCD-only
Description: Control animals (n=5) received normal chow and water ad libitum. All animals in the experimental groups were fed a fat-free, high carbohydrate liquid diet (HCD) ad libitum placed in one bottle per cage as previously described (3, 62). No additional sources of nutrition or hydration were provided. The HCD liquid solution contained 20% dextrose, a commercial mixture of 2% essential and nonessential amino acids (TrophAmine, B. Braun Medical, Irvine, Calif.), 2 ml trace elements (Trace Elements Injection 4, USP—Pediatric, American Regent Shirley, N.Y.), and 5 ml multivitamins (M.V.I. Pediatric™, Mayne Pharma, Paramus, N.J.). Each liter of HCD contained 30 meq sodium, 20 meq potassium chloride, 15 meq calcium, 10 meq magnesium, and 10 mM phosphate. The bottles were replaced daily with fresh HCD solution. HCD animals (n=5) received HCD only and no additional treatment for 19 days. The HCD+MAR animals (n=15) additionally received 100 mg/kg of Marimastat™ in 0.45% methylcellulose (Sigma-Aldrich Corporation, St. Louis, Mo.) vehicle twice daily via orogastric gavage. The animals were individually weighed every third day and at sacrifice. Immunoprecipitation was performed according to the Protein-G Immunoprecipitation Kit (Sigma-Aldrich Corporation, St. Louis, Mo.) protocol. […] The sample was then centrifuged and the supernatant was, analyzed by SDS-PAGE as detailed above.

[3] = test system: C57BL/6 mice; assay: General observations: survival, stool, body weight, macroscopic liver appearance and weight; assay type: in vivo, mouse
Description: Experiments were performed on 5-6 week-old C57BL/6 mice (Jackson Laboratories, Bar Harbor, Me.). The animals, in groups of five, were housed in a barrier room and were acclimated to their environment for at least 72 hours prior to the initiation of each experiment. Animal protocols complied with the NIH Animal Research Advisory Committee guidelines and were approved by the Children's Hospital Boston Animal Care and Use Committee.
Control animals (n=5) received normal chow and water ad libitum. All animals in the experimental groups were fed a fat-free, high carbohydrate liquid diet (HCD) ad libitum placed in one bottle per cage as previously described (3, 62). No additional sources of nutrition or hydration were provided. The HCD liquid solution contained 20% dextrose, a commercial mixture of 2% essential and nonessential amino acids (TrophAmine, B. Braun Medical, Irvine, Calif.), 2 ml trace elements (Trace Elements Injection 4, USP—Pediatric, American Regent Shirley, N.Y.), and 5 ml multivitamins (M.V.I. Pediatric™, Mayne Pharma, Paramus, N.J.). Each liter of HCD contained 30 meq sodium, 20 meq potassium chloride, 15 meq calcium, 10 meq magnesium, and 10 mM phosphate. The bottles were replaced daily with fresh HCD solution. HCD animals (n=5) received HCD only and no additional treatment for 19 days. The HCD+MAR animals (n=15) additionally received 100 mg/kg of Marimastat™ in 0.45% methylcellulose (Sigma-Aldrich Corporation, St. Louis, Mo.) vehicle twice daily via orogastric gavage. The animals were individually weighed every third day and at sacrifice.
We then performed a midline laparotomy to observe, excise, and weigh the liver. Approximately one half of the liver was fixed in 10% formalin at 4° C. overnight, washed with phosphate buffered saline, and then embedded in paraffin. After cutting 5 μm sections, slides were stained at the Department of Pathology, Children's Hospital Boston with H&E to examine cellular architecture and lipid accumulation, and with periodic acid-Schiff (PAS) to identify the presence of glycogen.

In the case of `CNC(=O)[C@@H](NC(=O)[C@H](CC(C)C)[C@H](O)C(=O)NO)C(C)(C)C` [Marimastat], the total bilirubin level ([1]; HCD+MAR group compared to HCD-only group) was “significantly lower”, the “serum alanine amino transferase (ALT) level” value ([1]; HCD+MAR group vs HCD-only, P<0.001) was “lower” and the “serum alkaline phosphatase (AP) level” value ([1]; HCD+MAR group, P<0.001) was “significantly lower”. For the same molecule, the “direct bilirubin (DB) level” value ([1]; all 15 mice in HCD+MAR group, P<0.001) was 0, the “phosphorylation of PPAR-α” value [2] was “marked increase” and the survival ([3]; 19 day protocol) was “All animals survived”. The liver weight ([3]; mouse, in vivo) was “no significant difference” and the “stool / bowel integrity” value ([3]; mouse, in vivo, 100 mg/kg) was “soft stool without gross signs of loss of bowel integrity”.
